In paper PMC12123601, “Light-Induced, Lysine-Targeting Irreversible Covalent Inhibition of the Human Oxygen Sensing Hydroxylase Factor Inhibiting HIF (FIH)” (Journal of the American Chemical Society, 2025):

Molecular target: FIH (Homo sapiens, UniProt Q9NWT6)
Assay: Time-dependent cellular thermal shift assay (CETSA) in Hep3B cells, FIH
Type: cell-based
Design: endogenous in cells; host or cells: Hep3B (SCSP-5045)
Conditions: for ΔTm at 50 µM: Hep3B
Description: To investigate potential cellular target engagement of NBA-ZG-2291 with FIH, we performed a time-dependent cellular thermal shift assay (CETSA) using Hep3B cells. The results imply that, after 30 min of light activation (365 nm, 16 W), NBA-ZG-2291 effectively stabilizes FIH with a ΔT m of about 9 °C after incubation for 12–48 h (Figure A), indicating sustained engagement with FIH. […] We also performed Western blotting to examine the protein levels of both HIF-1α and HIF-2α in control and NBA-ZG-2291-treated Hep3B cells.
5 NBA-ZG-2991 sustainably engages with FIH and regulates the expression of FIH-dependent HIF target gene EGLN3 in Hep3B cells. (A) The CETSA assay was carried out with Hep3B cells grown in the presence of NBA-ZG-2291 (50 μM) for 12–48 h after 30 min of light activation (365 nm, 16 W). The intensity of the bands for grayscale analysis was referenced to the starting temperature (37 °C). α-Actinin was the sample loading control. n = 2; mean ± SD. […] (E) Correlation heatmap of the NBA-ZG-2291-treated group and the siFIH group by RNA-sequencing analysis. […] The relative fold change with respect to DMSO treated sample is shown (with normalization to HPRT gene levels). Mean ± SEM; n = 3. (G) TG level of NBA-ZG-2291-treated 3T3-L1-derived adipocytes. Mean ± SEM; n = 3. (H) Representative Oil Red O-stained images of the control, ZG-2291-treated, and NBA-ZG-2291-treated 3T3-L1-derived adipocytes. Scale Bar, 30 μm. P values were analyzed by two-way ANOVA comparing with the vehicle/control group (*, P < 0.05; **, P < 0.01; ***, P < 0.001, ****, P < 0.0001). See Methods (Quantitative PCR Analysis of Gene Expression) for assay details. […]
Data acquisition was carried out in Full MS mode, positive ion detection, the acquisition time was 10 min, and the scanning range of the mass-to-charge ratio was 400-2000 m/z.
3.5 Dihedral angle scan analysis
Dihedral angle scans were performed using the Gaussion 16 suite11. The original dihedral angles of the isoxazol-5-yl pyridine fragment were set to 0° via Gaussian View 6.0.16 for dihedral scanning from 0° to 360° in 1° increments at the B3LPY-D3(BJ)/6-31+G(d) level of theory. The resulting 360 conformations and the single-point energy for each conformation were extracted.
3.6 Molecular dynamics (MD) simulations
The process of customizing non-standard residues (NBA-ZG-2291 modified Lys106) in the amber14sb force field involved the following steps: First, the molecular structure of NBA-ZG-2291 was obtained and its topology was generated. […]
The RESP charges were fitted using Multiwfn, wherein the optimized structure and ESP data were inputted to perform the restrained electrostatic potential fitting. The obtained RESP charges were subsequently incorporated into the gaff topology generated by Multwfn. […]

FIH, sequence (Q9NWT6 whole entry): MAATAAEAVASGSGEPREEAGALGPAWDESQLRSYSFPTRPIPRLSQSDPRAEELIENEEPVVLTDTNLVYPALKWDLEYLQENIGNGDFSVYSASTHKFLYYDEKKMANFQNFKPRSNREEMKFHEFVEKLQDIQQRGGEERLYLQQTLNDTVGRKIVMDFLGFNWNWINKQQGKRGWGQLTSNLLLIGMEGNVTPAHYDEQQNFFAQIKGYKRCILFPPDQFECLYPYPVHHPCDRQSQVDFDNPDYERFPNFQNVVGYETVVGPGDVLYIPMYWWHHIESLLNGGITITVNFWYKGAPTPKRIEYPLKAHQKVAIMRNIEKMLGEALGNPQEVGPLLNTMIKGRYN

## O=C(O)CNC(=O)c1ncc(-c2cc(-c3ccc(CO)c([N+](=O)[O-])c3)no2)cc1O [NBA-ZG-2291]
Incubation 12 h after 30 min light activation (365 nm, 16 W)
  ΔTm at 50 µM: 8.87 °C
Incubation 24 h after 30 min light activation (365 nm, 16 W)
  ΔTm at 50 µM: 9.28 °C
Incubation 48 h after 30 min light activation (365 nm, 16 W)
  ΔTm at 50 µM: 8.86 °C
Incubation for 12–48 h after 30 min light activation (365 nm, 16 W)
  FIH: ΔTm: about 9 °C
